Measured values from patent US12414267B2, “Fluorinated aromatics and methods of using same” (3M INNOVATIVE PROPERTIES COMPANY, priority 2019, dated 2025).

Assay: Log Kow (octanol/water partition coefficient) by HPLC, OECD Test Method 117
Format: physicochemical
Conditions: OECD 117
Procedure: Values of Log Kow (octanol/water partition coefficients) were determined by HPLC using the method described in Organization for Economic Cooperation and Development (OECD) Test Method 117, “Partition Coefficient (n-octanol/water), HPLC Method.”

With `Fc1c(F)c(F)c(OC(=C(C(F)(F)F)C(F)(F)F)C(F)(F)C(F)(F)F)c(F)c1F` [Example 1, 1,2,3,4,5-Pentafluoro-6-[3,3,3-trifluoro-1-(1,1,2,2,2-pentafluoroethyl)-2-(trifluoromethyl)prop-1-enoxy]benzene] the “Log Kow” value was 6.1.

With `F/C(Oc1c(F)c(F)c(F)c(F)c1F)=C(/F)C(F)(F)F` [Example 2, (E)-1,2,3,4,5-Pentafluoro-6-((perfluoroprop-1-en-1-yl)oxy)benzene] the “Log Kow” value was 4.7.

For `F/C(=C(/C(F)(F)F)C(F)(Oc1c(F)c(F)c(F)c(F)c1F)C(F)(F)C(F)(F)F)C(F)(C(F)(F)F)C(F)(F)F` (stereo not drawn) [Example 3, (E)-1,2,3,4,5-Pentafluoro-6-((1,1,1,2,2,3,5,6,7,7,7-undecafluoro-4,6-bis(trifluoromethyl)hept-4-en-3-yl)oxy)benzene], the “Log Kow” value was greater than 6.4.

In the case of `F/C(=C(/C(F)(F)F)C(F)(Oc1ccccc1)C(F)(F)C(F)(F)F)C(F)(C(F)(F)F)C(F)(F)F` (stereo not drawn) [Example 4, (E)-((1,1,1,2,2,3,5,6,7,7,7-Undecafluoro-4,6-bis(trifluoromethyl)hept-4-en-3-yl)oxy)benzene+isomers], the “Log Kow” value is reported as greater than 6.4.

For `FC(F)(F)C(=C(Oc1ccccc1)C(F)(F)C(F)(F)F)C(F)(F)F` [Example 5, ((1,1,1,4,4,5,5,5-Octafluoro-2-(trifluoromethyl)pent-2-en-3-yl)oxy)benzene], the “Log Kow” value was 5.5.

In the case of `FC(F)(F)C(=C(Oc1cccc(C(F)(F)F)c1)C(F)(F)C(F)(F)F)C(F)(F)F` [Example 7, 1-((1,1,1,4,4,5,5,5-Octafluoro-2-(trifluoromethyl)pent-2-en-3-yl)oxy)-3-(trifluoromethyl)benzene], the “Log Kow” value is reported as 6.1.
